Laboratory results: patent US20060252813A1, “Apparatus for curing a composite laminate” (priority 2002, published 2006)
Where a SMILES comes first, the peptide text is derived from it. [ ]: non-standard residue; d: D form. Phe(3-CN) = N#Cc1cccc(C[CH](N)C(=O)O)c1; Phe(2-CN) = N#Cc1ccccc1C[CH](N)C(=O)O; 1Nal = N[CH](Cc1cccc2ccccc12)C(=O)O

Tests used:
LpCyp18 = LpCyp18 (Legionella pneumophila, UniProt Q5ZRZ4); experiment: biochemical
hPin1 = hPin1 (Homo sapiens, UniProt Q13526); experiment: protease-coupled PPIase assay, hPin1; format: biochemical; conditions: 6 nM hPin1; substrate Ac-Ala-Ala-Ser(PO3H2)-Pro-Arg-pNA, trypsin; 35 mM HEPES pH 7.8, 6° C; read-out: Target T-1 (hPin1), IC50 class
hFKBP12 = hFKBP12 (Homo sapiens, UniProt P62942); experiment: protease-coupled PPIase assay, hFKBP12; format: biochemical; conditions: 20 nM hFKBP12; substrate Suc-Ala-Phe-Pro-Phe-pNA, α-chymotrypsin; 35 mM HEPES pH 7.8, 6° C; read-out: Target T-2 (hFKBP12), IC50 class
hCyp18 = hCyp18 (Homo sapiens, UniProt P62937); experiment: protease-coupled PPIase assay, hCyp18; format: biochemical; conditions: 10 nM hCyp18; substrate Suc-Ala-Phe-Pro-Phe-pNA, α-chymotrypsin; 35 mM HEPES pH 7.8, 6° C; read-out: Target T-3 (hCyp18), IC50 class
EcParvulin = EcParvulin (Escherichia coli, UniProt P0A9L5); experiment: protease-coupled PPIase assay, EcParvulin; format: biochemical; conditions: 20 nM EcParvulin; substrate Suc-Ala-Phe-Pro-Phe-pNA, α-chymotrypsin; 35 mM HEPES pH 7.8, 6° C; read-out: Target T-5 (EcParv), IC50 class
Chain of EcParvulin (P0A9L5 whole entry): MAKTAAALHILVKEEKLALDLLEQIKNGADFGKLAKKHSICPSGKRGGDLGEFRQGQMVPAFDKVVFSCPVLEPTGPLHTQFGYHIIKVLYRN

Chain of hPin1 (Q13526 whole entry): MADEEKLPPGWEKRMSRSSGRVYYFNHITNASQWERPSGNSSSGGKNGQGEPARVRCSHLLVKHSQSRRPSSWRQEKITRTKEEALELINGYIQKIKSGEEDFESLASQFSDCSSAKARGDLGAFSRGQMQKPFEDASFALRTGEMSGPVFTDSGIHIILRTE
Chain of hFKBP12 (P62942 whole entry): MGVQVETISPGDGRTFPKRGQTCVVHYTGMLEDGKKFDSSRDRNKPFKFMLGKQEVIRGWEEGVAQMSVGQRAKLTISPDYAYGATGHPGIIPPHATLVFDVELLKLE
Chain of LpCyp18 (Q5ZRZ4 1-164): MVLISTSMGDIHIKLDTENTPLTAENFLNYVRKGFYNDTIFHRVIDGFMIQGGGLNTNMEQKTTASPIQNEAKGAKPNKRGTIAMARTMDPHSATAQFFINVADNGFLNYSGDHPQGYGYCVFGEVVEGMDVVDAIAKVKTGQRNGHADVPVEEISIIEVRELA
Chain of hCyp18 (P62937 whole entry): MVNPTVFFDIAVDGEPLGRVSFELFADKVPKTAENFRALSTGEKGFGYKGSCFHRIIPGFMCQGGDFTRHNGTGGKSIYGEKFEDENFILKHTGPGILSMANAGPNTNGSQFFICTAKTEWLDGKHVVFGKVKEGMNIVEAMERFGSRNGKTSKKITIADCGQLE

Structure (SMILES)	IC50 (LpCyp18) [µM]	IC50 (hPin1) [µM]	IC50 (hFKBP12) [µM]	IC50 (hCyp18) [µM]	IC50 (EcParvulin) [µM]
CCNC(=S)NC(Cc1ccc2ccccc2c1)C(=O)NCCC#N (stereo not drawn) [Compound 1]	> 100	< 5	> 100	> 100	
N#CCCNC(=O)[C@H](Cc1csc2ccccc12)NC(=S)Nc1ccc(SC(F)(F)F)cc1 [Compound 2]	> 100	5 to 10	> 100	> 100	
N#CCCNS(=O)(=O)Cc1ccccc1 [Compound 3]	> 100	5 to 10	> 100	> 100	
CCc1ccc(NC(=S)NCCC#N)cc1 [Compound 5]	> 100	< 5	> 100	> 100	
CC(C)CC(NC(=O)C1CCCN1CC#N)C(N)=O (stereo not drawn) [Compound 6]	> 100	5 to 10	> 100	> 100	
CN(C)c1ccc(N=Nc2ccc(S(=O)(=O)NCCC#N)cc2)cc1 [Compound 7]	> 100	5 to 10	> 100	> 100	
CC(=O)NC(Cc1cccc2ccccc12)C(=O)NC(Cc1ccccc1C#N)C(N)=O (stereo not drawn) [Compound 8] (Ac-[1Nal]-[Phe(2-CN)]-NH2; configuration not given here)	> 100	< 5	> 100	> 100	
CC(=O)NC(Cc1cccc2ccccc12)C(=O)NC(Cc1cccc(C#N)c1)C(N)=O (stereo not drawn) [Compound 9] (Ac-[1Nal]-[Phe(3-CN)]-NH2; configuration not given here)	> 100	5 to 10	> 100	> 100	5 to 10
